According to PubChem BioAssay (NCI):
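Dose response: 5 concentrations. Exposure: 48 h. Format: 96-well plates. Endpoint: linear interpolation; highest concentration if not reached. Abbreviation: GI50, concentration required for 50% inhibition of growth. TGI: concentration producing complete growth inhibition.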

Tests used:
Assay in all cases: NCI tumour cell line growth inhibition, 48 h
SK-OV-3 ovarian = system: SK-OV-3 ovarian
NCI-H226 lung = system: NCI-H226 lung
A498 renal = system: A498 renal
SF-295 CNS = system: SF-295 CNS
NCI-H522 lung = system: NCI-H522 lung
SR leukemia = system: SR leukemia
NCI-H460 lung = system: NCI-H460 lung
UACC-62 melanoma = system: UACC-62 melanoma
OVCAR-5 ovarian = system: OVCAR-5 ovarian
SW-620 colon = system: SW-620 colon

Structure (SMILES)	TGI (SK-OV-3 ovarian)	TGI (NCI-H226 lung)	TGI (A498 renal)	TGI (SF-295 CNS)	TGI (NCI-H522 lung)	TGI (SR leukemia)	TGI (NCI-H460 lung)	TGI (UACC-62 melanoma)	TGI (OVCAR-5 ovarian)	TGI (SW-620 colon)	GI50 (SK-OV-3 ovarian)	GI50 (NCI-H226 lung)	GI50 (A498 renal)	GI50 (SF-295 CNS)	GI50 (NCI-H522 lung)	GI50 (SR leukemia)	GI50 (NCI-H460 lung)	GI50 (UACC-62 melanoma)	GI50 (OVCAR-5 ovarian)	GI50 (SW-620 colon)
COc1cc(/C=C(\C#N)C(N)=C(C#N)C#N)cc(O)c1O	> 100 µM	> 100 µM	> 100 µM	> 100 µM	> 100 µM	> 100 µM	> 100 µM	> 100 µM	> 100 µM	> 100 µM										
Cc1cc(Cl)ccc1Nc1nc(C(F)(F)F)ccc1C(=O)N1CCN(c2cccc(Cl)c2)CC1	> 100 µM	> 100 µM	> 100 µM	> 100 µM	> 100 µM	> 100 µM	> 100 µM	> 100 µM	> 100 µM	> 100 µM	> 100 µM	> 100 µM	37.1 µM	88.9 µM	> 100 µM	> 100 µM	> 100 µM	> 100 µM	> 100 µM	> 100 µM
COc1cc(NC(=O)Nc2cnc(Nc3ccc(N4CCOCC4)cc3)nc2Oc2cccc(OC)c2)cc(OC)c1	11.1 µM	8.48 µM	2.97 µM	3.61 µM	6.25 µM	> 50 µM	2.27 µM	4.04 µM	41.6 µM	> 50 µM	2.79 µM	1.88 µM	1.3 µM	1.19 µM	1.44 µM	2.71 µM	1.12 µM	1.35 µM	6.49 µM	2.99 µM
Nc1[nH]c(=O)ncc1CO	> 100 µM	> 100 µM	> 100 µM	> 100 µM	> 100 µM	> 100 µM	> 100 µM	> 100 µM	> 100 µM	> 100 µM	> 100 µM	> 100 µM	> 100 µM	> 100 µM	> 100 µM	> 100 µM	> 100 µM	> 100 µM	> 100 µM	> 100 µM
O=C(Nc1ccccc1C(=O)N/N=C(\c1ccccc1)c1ccccn1)c1ccc(F)cc1	> 20.9 µM		9.43 µM	> 100 µM	> 28.6 µM	> 100 µM	4.19 µM	2.03 µM	> 100 µM	> 100 µM	0.354 µM	0.366 µM	1.37 µM	0.262 µM	0.393 µM	0.142 µM	0.105 µM	0.308 µM	0.671 µM	0.448 µM
CCSC(SCC)=C1C(=O)N(c2ccccc2)N=C1C	33.4 µM	29.9 µM	28.8 µM	73.5 µM	5.05 µM	38.4 µM	29.5 µM	28 µM	29.9 µM	20.3 µM										
Oc1ccc(Cl)cc1Cc1cc(Cl)ccc1O	10.9 µM	14.4 µM	9.84 µM	6.09 µM	5.32 µM	35.8 µM	10.7 µM	10.5 µM	19.6 µM	12.4 µM	2.81 µM	3.28 µM	1.98 µM	2.27 µM	1.92 µM	4.45 µM	3 µM	2.77 µM	4.79 µM	3.04 µM
C[N+](C)(C)CC1CCCC(C[N+](C)(C)C)C1O (centres undefined)	> 100 µM	> 100 µM	> 100 µM	> 100 µM	> 100 µM	> 100 µM	> 100 µM	> 100 µM	> 100 µM	> 100 µM										
O=c1[nH]c2ccccc2n1-c1n[nH]c2ccccc12	> 100 µM	55.4 µM	> 100 µM	59.8 µM	48.7 µM	73.1 µM	93.5 µM	96.7 µM	> 100 µM	> 100 µM	73 µM	18.9 µM	51.3 µM	25.4 µM	19.7 µM	18.1 µM	19.4 µM	33.6 µM	33.6 µM	39.4 µM
CNC(=O)CN(CC(N)=O)C(N)=O	> 100 µM	> 100 µM	> 100 µM	> 100 µM	> 100 µM	> 100 µM	> 100 µM	> 100 µM	> 100 µM	> 100 µM										
C(/Cc1ccc2c(c1)OCO2)=N\NC1=NCCCN1	> 100 µM	> 100 µM	72.8 µM	> 100 µM	> 100 µM	70.2 µM	> 100 µM	> 100 µM	> 100 µM	> 100 µM										
CC1(C)OC2C(COS(N)(=O)=O)SC(n3cnc4cncnc43)C2O1 (centres undefined)	> 100 µM	> 100 µM	> 100 µM	> 100 µM	> 100 µM	> 100 µM	> 100 µM	> 100 µM	> 100 µM	> 100 µM	> 100 µM	> 100 µM	> 100 µM	> 100 µM	> 100 µM	> 100 µM	> 100 µM	> 100 µM	> 100 µM	> 100 µM
COc1nc(NC2OC(COC(C)=O)C(OC(C)=O)C(OC(C)=O)C2OC(C)=O)c(-c2csc(N)n2)c(=O)n1C (centres undefined)	> 100 µM	> 100 µM	> 100 µM	> 100 µM	> 100 µM	> 100 µM	> 100 µM	> 100 µM	> 100 µM	> 100 µM										
CC1CCC2N(C1)CC1C3(O)CC45OC6(O)C(O)CCC4(C)C6CCC5C3(O)CC(O)C1(O)C2(C)O (centres undefined)	> 100 µM	> 100 µM	> 100 µM	> 100 µM	> 100 µM	> 100 µM	> 100 µM	> 100 µM	> 100 µM	> 100 µM										
